Source: patent US11174243B2, “Succinate forms and compositions of Bruton's tyrosine kinase inhibitors” (Sunesis Pharmaceuticals, Inc., priority 2016, dated 2021)
In brackets after ≈: the same amount, converted by molar mass. Blank lines part the entries; values can stand above or below the molecule they belong to.

Assays:
human recombinant WT BTK = human recombinant WT BTK (Homo sapiens, UniProt Q06187); experiment: FRET recombinant kinase assay, WT BTK; assay type: biochemical
primary CLL B cells = experiment: Viability of primary patient CLL cells (Annexin V and propidium iodide flow cytometry); assay type: cell-based; settings: Homo sapiens, B-cell, 48 hours, read-out: viability, that of the untreated condition
Protocol: Methods: Primary CLL B cells were isolated from the whole blood of consented patients by FICOLL density centrifugation and rosette-sep negative selection. Annexin V and propidium iodide flow cytometry was used to measure patient CLL cell viability and 7AAD was used to measure viability in stromal co-culture. CD40 and CD86 expression was evaluated via flow cytometry subsequent to sustained 3.2 μM CpG stimulation. BCR signaling in primary CLL cells was investigated by immunoblot succeeding 1 hour treatment and following 1 hour or 24 hours of incubation with Compound 1 in XLA cell lines. MTS values were read after 24 hours of drug incubation. ITK inhibition was investigated via immunoblot after stimulation with anti-CD3 and anti-CD28 and incubation with Compound 1 for 1 hour. Compound 1 was used at a concentration of 1 μM in preclinical studies unless otherwise noted.

ITK = biological target: T1, ITK (Homo sapiens, UniProt Q08881); experiment: In vitro kinase assay, ITK
T1 sequence (Q08881 1-620): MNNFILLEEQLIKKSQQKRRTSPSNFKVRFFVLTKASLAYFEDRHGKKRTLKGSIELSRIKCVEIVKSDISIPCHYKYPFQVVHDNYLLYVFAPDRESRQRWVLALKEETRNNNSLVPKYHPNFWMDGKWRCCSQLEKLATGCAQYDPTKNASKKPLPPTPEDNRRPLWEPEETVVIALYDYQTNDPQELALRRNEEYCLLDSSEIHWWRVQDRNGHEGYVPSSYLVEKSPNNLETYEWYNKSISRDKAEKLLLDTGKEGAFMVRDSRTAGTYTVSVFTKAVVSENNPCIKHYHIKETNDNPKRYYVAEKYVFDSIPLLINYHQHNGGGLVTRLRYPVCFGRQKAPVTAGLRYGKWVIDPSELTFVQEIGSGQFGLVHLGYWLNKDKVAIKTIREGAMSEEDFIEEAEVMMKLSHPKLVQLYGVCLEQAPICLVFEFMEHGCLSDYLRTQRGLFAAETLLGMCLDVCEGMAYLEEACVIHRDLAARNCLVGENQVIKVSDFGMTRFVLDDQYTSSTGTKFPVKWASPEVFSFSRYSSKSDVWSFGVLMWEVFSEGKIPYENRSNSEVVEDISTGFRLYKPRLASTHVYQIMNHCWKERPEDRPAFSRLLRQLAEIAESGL

[1] = Solubility of Compound 2 in solvent systems (slurries, HPLC); assay type: physicochemical; settings: thermodynamic from solid, after one day at 20° C.
Protocol: Slurries were set up in the solvents reported in Table 1 by weighing approximately 200 mg of Compound 2, suspending the solid in 0.5 mL of solvent and checking that excess solid remained un-dissolved. The prepared samples were also used to calculate Compound 2 solubility in the solvent systems used.
The slurries prepared for the long term slurry experiments were sampled after one day at 20° C. to measure the solubility of Compound 2 in the solvent systems used. The solubility data were obtained by HPLC with respect to a response factor; six samples of Compound 2, dissolved in acetonitrile/methanol 40/60 at known concentration, were prepared and injected in HPLC. The resulting HPLC areas were used to calculate the HPLC response factor for Compound 2 (data not shown).

Single-dose PK in rat = assay type: in vivo, male Sprague Dawley rats; settings: male, Sprague Dawley, plasma
Protocol: A series of single-dose PK studies were conducted in rat, dog, and monkey to investigate the plasma PK of Compound 2 following single oral and single intravenous (IV) administration of Compound 2.
The PK profile of Compound 2 was evaluated in male Sprague Dawley rats (n=3) following single IV administration of Compound 2 at 1 mg/kg and single oral administration at 5 mg/kg. Following each administration serial blood samples were collected at 0 (predose), 0.08, 0.25, 0.5, 0.75, 2, 5, 10, and 24 hours postdose.

[2] = Phase 1a single-dose study in humans: safety; assay type: in vivo, human
Protocol: A first-in-human Phase 1a randomized, double-blind, placebo-controlled, single-dose study, was conducted in 3 stages: In Stage 1, four sequential cohorts of 8 subjects each were randomly assigned to receive progressively higher single oral administrations of Compound 2 at doses of 50, 100, 200, and 300 mg (n=6 per cohort; 3 males and 3 females) or placebo (n=2 per cohort; 1 male and 1 female).
The primary endpoint of safety was assessed by monitoring adverse events (AEs), laboratory abnormalities, and cardiac findings (ECG). Secondary endpoints included evaluation of the PK parameters of area under the plasma concentration-time curve (AUC), maximum plasma concentration (Cmax), time of maximum concentration (Tmax), apparent volume of distribution (Vd/F), terminal elimination half-life (t1/2), terminal elimination rate constant (λz), and apparent clearance (Cl/F) as well as the PD parameter of BTK inhibition in whole blood.

[3] = 1 mg/kg, IV, dose 1, SPEW, free base measured
[4] = 5 mg/kg, PO, dose 5, 0.1% CMC/0.2% Tween, free base measured

Chain of human recombinant WT BTK (Q06187 whole entry): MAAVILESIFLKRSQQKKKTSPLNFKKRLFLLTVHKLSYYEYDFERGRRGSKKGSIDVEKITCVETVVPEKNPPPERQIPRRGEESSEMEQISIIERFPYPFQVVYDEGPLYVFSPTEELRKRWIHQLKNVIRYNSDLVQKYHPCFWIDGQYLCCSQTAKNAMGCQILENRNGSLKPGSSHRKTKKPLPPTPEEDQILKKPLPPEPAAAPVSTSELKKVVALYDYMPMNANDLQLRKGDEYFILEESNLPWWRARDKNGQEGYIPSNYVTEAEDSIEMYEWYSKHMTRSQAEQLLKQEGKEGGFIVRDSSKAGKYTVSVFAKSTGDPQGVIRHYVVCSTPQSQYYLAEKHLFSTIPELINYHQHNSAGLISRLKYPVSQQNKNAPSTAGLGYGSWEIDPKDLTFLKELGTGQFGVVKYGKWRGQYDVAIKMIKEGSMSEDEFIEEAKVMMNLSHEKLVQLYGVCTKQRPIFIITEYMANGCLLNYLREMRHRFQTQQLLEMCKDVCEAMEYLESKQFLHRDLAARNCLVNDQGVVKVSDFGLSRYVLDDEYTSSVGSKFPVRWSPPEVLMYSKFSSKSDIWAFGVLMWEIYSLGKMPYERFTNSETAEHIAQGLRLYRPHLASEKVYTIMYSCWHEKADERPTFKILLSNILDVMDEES

IC50 (human recombinant WT BTK): 4.6 nM
IC50 (ITK): 24 nM
Structure (SMILES): NC(=O)[C@H]1CCN(c2ncnc(N)c2F)C[C@@H]1N1CCC[C@@H](Nc2cc(Cl)cc(C(F)(F)F)c2)C1=O [Compound 1, (3R,3′R,4′S)-1′-(6-amino-5-fluoropyrimidin-4-yl)-3-((3-chloro-5-(trifluoromethyl)phenyl)amino)-2-oxo-[1,3′-bipiperidine]-4′-carboxamide]
viability at 0.1 µM (primary CLL B cells; 0.1 μM): 96.7%
viability at 1 µM (primary CLL B cells; 1.0 μM): 96.1%
viability at 10 µM (primary CLL B cells; 10.0 μM): 88.1%

solubility at 1 day ([1]; organic solvent or mixture, 1,4-dioxane): 22 mg/mL (≈ 41.5 mM)
solubility at 1 day ([1]; organic solvent or mixture, 2-propanol/water 90/10): 41 mg/mL (≈ 77.4 mM)
solubility at 1 day ([1]; organic solvent or mixture, 2-propanol): 11 mg/mL (≈ 20.8 mM)
solubility at 1 day ([1]; organic solvent or mixture, Acetone): 11 mg/mL (≈ 20.8 mM)
solubility at 1 day ([1]; organic solvent or mixture, Cyclohexanone): 16 mg/mL (≈ 30.2 mM)
solubility at 1 day ([1]; organic solvent or mixture, Ethanol/water 90/10): 49 mg/mL (≈ 92.5 mM)
solubility at 1 day ([1]; organic solvent or mixture, Ethanol): 21 mg/mL (≈ 39.6 mM)
solubility at 1 day ([1]; organic solvent or mixture, Ethyl acetate): 2 mg/mL (≈ 3.77 mM)
solubility at 1 day ([1]; organic solvent or mixture, Isopropyl acetate): 1 mg/mL (≈ 1.89 mM)
solubility at 1 day ([1]; organic solvent or mixture, Methanol/water 90/10): 100 mg/mL (≈ 189 mM)
solubility at 1 day ([1]; organic solvent or mixture, Methanol): 103 mg/mL (≈ 194 mM)
solubility at 1 day ([1]; organic solvent or mixture, Tert-butylmethyl ether): 1 mg/mL (≈ 1.89 mM)
solubility at 1 day ([1]; Water): 1 mg/mL (≈ 1.89 mM)
AUC(0-inf) (Single-dose PK in rat; [3]): 16100 ng·h/mL
C0 (Single-dose PK in rat; [3]): 4370 ng/mL
half-life (Single-dose PK in rat; [3]): 4 h
AUC(0-inf) (Single-dose PK in rat; [4]): 14600 ng·h/mL
Cmax (Single-dose PK in rat; [4]): 1780 ng/mL
Tmax (Single-dose PK in rat; [4]): 2.6 h
bioavailability (Single-dose PK in rat; 5 mg/kg, PO, dose 5, 0.1% CMC/0.2% Tween, read-out: % F (oral bioavailability)): 18%
Structure (SMILES): NC(=O)[C@H]1CCN(c2ncnc(N)c2F)C[C@@H]1N1CCC[C@@H](Nc2cc(Cl)cc(C(F)(F)F)c2)C1=O [Compound 2]
subjects with treatment-emergent AEs (TEAEs) ([2]; 24 subjects, single oral doses 50-300 mg, 8 subjects): 33%
subjects with treatment-related TEAEs ([2]; 24 subjects, single oral doses 50-300 mg, six subjects): 25%
Grade 3 or higher AEs ([2]; single oral doses): No Grade 3 or higher AEs were reported
SAEs ([2]; single oral doses): No SAEs were reported
dose-dependent toxicity ([2]; single oral doses 50-300 mg): No obvious pattern of dose-dependent toxicity was observed
